Test results published in patent publication US20160318856A1, “Substituted Urea eIF2alpha Kinase Activators” (THE BRIGHAM AND WOMEN'S HOSPITAL, INC., priority 2013, published 2016).
Read-outs that look alike come from different tables or passages of the source.

How the values were obtained:
[1] = tested on: eIF2α phosphorylation (eIF2•GTP•Met-tRNAi ternary complex; HRI activation); test: surrogate dual luciferase eIF2α phosphorylation (ternary complex) assay; format: cell-based, human; details: for maximal fold induction: Homo sapiens, read-out: Emax (F/R)
Excerpt: The dual luciferase expression vector and other plasmids used for these studies were previously described (see, for example, Ziegeler, G. et al. Journal of Biological Chemistry 2010, 285(20), 15408-19). The ternary complex assay, surrogate of eIF2α phosphorylation, has been described elsewhere (see, for example, Chen, T. et al. Nature Chemical Biology 2011, 7(9), 610-6). Briefly, the pBISA vector, which contains seven copies of the tetracycline-regulated transactivator response element (TRE), is flanked on both sides by minimal human cytomegalovirus (CMV) minimal promoters allowing bi-directional transcription and two MCSs (multiple cloning sites). Firefly and renilla luciferases were subcloned into MCS-I and MCS-II, respectively. This plasmid, designated pBISA-DL, transcribes two mRNAs that contain the 90 nucleotide plasmid derived 5′UTR (same sequence in both mRNAs), and the ORF encoding either firefly or renilla luciferase followed by a polyadenylation sequence. This plasmid was further modified by inserting the 5′UTR of ATF-4 mRNA into MCS-I in front of the firefly luciferase mRNA. Transcription from this unit generates an mRNA that contains the firefly luciferase ORF preceded by a 5′UTR composed of 90 nucleotides derived from the plasmid and 267 nucleotides derived from the 5′UTR of ATF-4 mRNA. Transcription from the other unit generates an mRNA that contains the renilla luciferase ORF proceeded only by the 90-nucleotide plasmid-derived sequence in the 5′UTR (pBISA-DL (ATF-4)) (see, for example, Chen, T. et al. Nature Chemical Biology 2011, 7(9), 610-6).
Cells expressing firefly and renilla luciferases were assayed with a dual glow luciferase assay kit, per manufacturer's instruction (Promega Inc., Madison, Wis.). The data calculations were carried out as the ratio of firefly to renilla luciferase signal.
A library of 1900 urea compounds was screened in the surrogate dual luciferase eIF2α phosphorylation (ternary complex) assay. This library was originally assembled and screened for inhibition of sEH by Hammock's group at UC-Davis (see, for example, Chen, T. et al. Nature Chem Biol 2011, 7, 610-616; Ziegeler, G et al. J Biol Chem 2010, 285, 15408-15419). We developed this assay in order to identify compounds that activate HRI, taking advantage of the fact that activated HRI phosphorylates eIF2α thereby reducing the amount of the eIF2•GTP•Met-tRNAi ternary complex that results in inhibition of translation of many mRNAs but paradoxically increases translation of some mRNAs that contain multiple upstream ORF (uORF) in their 5′ untranslated regions (UTRs). In our assay, firefly (F) luciferase mRNA is fused to 5′UTR of activating transcription factor 4 (ATF-4) mRNA that has multiple uORFs while renilla (R) luciferase mRNA is fused to a 5′UTR lacking any uORFs. Compounds that reduce the amount of the ternary complex, such as those activating HRI, would increase F luciferase expression while decreasing the R luciferase expression, resulting in an increased F/R luciferase ratio. To calculate the activity scores, the F/R ratios for every compound-treated wells were normalized to vehicle-treated (DMSO) wells that was arbitrarily set at 1 (F/R=1).

[2] = tested on: CRL-2813 human melanoma cancer cells; test: cell proliferation (SRB) assay, CRL-2813; format: cell-based; details: read-out: IC50
Method: Cells were seeded in 96-well plates and maintained for 5 days in the presence of 0.5 to 20 μM of individual compound, and cell proliferation was measured by the sulforhodamine B (SRB) assay as described previously (see, for example, Palakurthi, S. S. et al. Cancer Research 2000, 60(11), 2919-2925). Briefly, at the end of a 5-day treatment, cells were fixed in 10% cold trichloroacetic acid. Cell number was estimated by measuring the remaining bound dye of sulforhodamine B after washing. The percentage of growth was calculated by using the equation: 100×[(T−T0)/(C−T0)], where T and C represent the absorbance in treated and control cultures at Day 5, and T0 at time zero, respectively. If T is less than T0, cell death has occurred and can be calculated from 100×[(T−T0)/T0].

[3] = ternary complex assay, F/R normalized to vehicle (DMSO = 1)
[4] = cell proliferation assay (SRB, 5 days), cell line not named in Table 1, values equal CRL-2813 values of Tables 5/8
[5] = surrogate eIF2α phosphorylation assay, Table 4
[6] = Homo sapiens, CRL2813, cell proliferation assay, Table 4, cell line not named
[7] = cell proliferation assay, Table 2, cell line not named

SMILES	Emax (F/R) [1, 3] [F/R]	IC50 [2, 4] [µM]	Emax (F/R) ([1]; 7.5 μM compound)	Emax (F/R) ([1]; 15 μM compound)	Emax (F/R) ([1]; 30 μM compound)	IC50 [2, 7] [µM]	also measured
O=C(Nc1ccc(Cl)cc1)NC1CCC(Oc2ccc(F)cc2)CC1 (centres unmarked) [Compound I-2p]	1.65	> 20	–	–	–	–	–
O=C(Nc1cccc(C(F)(F)F)c1)NC1CCCC(Oc2ccc(C(F)(F)F)cc2)C1 (centres unmarked) [III-6, 1-(3-(4-(Trifluoromethyl)phenoxy)cyclohexyl)-3-(3-(trifluoromethyl)phenyl)urea]	–	–	–	–	–	–	maximal fold induction [1, 5]: 4.52; IC50 [2, 6]: 3.8 ± 1.2 µM
O=C(Nc1cccc(I)c1)NC1CCC(Oc2ccc(F)cc2)CC1 (centres unmarked) [Compound I-4m]	10.32	5.2 ± 0.2	–	–	–	–	–
CSc1ccccc1NC(=O)N[C@H]1CC[C@H](OCc2c(F)cccc2F)CC1 [II-10o]	–	–	0.82	0.90	0.83	> 20	–
COC(=O)c1cccc(NC(=O)NC2CCC(Oc3ccc(F)cc3)CC2)c1 (centres unmarked) [Compound I-11m]	6.83	9.2 ± 0.8	–	–	–	–	–
O=C(Nc1ccc(I)cc1)N[C@H]1CC[C@H](OCc2c(F)cccc2F)CC1 [II-4p]	–	–	0.76	0.82	0.67	> 20	–
O=C(Nc1cccc(C(F)(F)F)c1)NC1CCC(Oc2ccc(Cl)cc2)CC1 (centres unmarked) [Compound I-16, 1-(4-(4-Chlorophenoxy)cyclohexyl)-3-(3-(trifluoromethyl)phenyl)urea]	–	–	–	–	–	–	maximal fold induction ([1]; surrogate eIF2α phosphorylation assay, Table 3): 6.73; IC50 ([2]; Homo sapiens, CRL2813, cell proliferation assay, Table 3, cell line not named, values equal CRL-2813 values of Table 8): 2 ± 0.1 µM
O=C(Nc1ccccc1Br)NC1CCC(Oc2ccc(F)cc2)CC1 (centres unmarked) [Compound I-3o]	5.23	7.7 ± 0.1	–	–	–	–	–
Cc1ccc(NC(=O)NC2CCC(Oc3ccc(F)cc3)CC2)cc1 (centres unmarked) [Compound I-7p]	1.05	> 20	–	–	–	–	–
O=C(Nc1ccccc1C(=O)O)NC1CCC(Oc2ccc(F)cc2)CC1 (centres unmarked) [Compound I-12o, 2-(3-(4-(4-fluorophenoxy)cyclohexyl)ureido)benzoic acid]	–	–	–	–	–	–	maximal fold induction [1, 3]: 1.2; IC50 ([2]; Homo sapiens, CRL2813, 120 h, cell proliferation assay (SRB, 5 days), cell line not named in Table 1, values equal CRL-2813 values of Tables 5/8): > 20 µM
CSc1cccc(NC(=O)N[C@H]2CC[C@H](OCc3c(F)cccc3F)CC2)c1 [II-10m]	–	–	1.01	0.73	1.06	> 20	–
O=C(Nc1cccc(F)c1)N[C@H]1CC[C@H](OCc2c(F)cccc2F)CC1 [II-1m]	–	–	0.72	0.77	0.67	> 20	–
O=C(Nc1ccccc1Br)N[C@H]1CC[C@H](OCc2c(F)cccc2F)CC1 [II-3o]	–	–	0.96	0.99	0.96	> 20	–
CSc1ccccc1NC(=O)NC1CCC(Oc2ccc(F)cc2)CC1 (centres unmarked) [Compound I-10o]	0.92	> 20	–	–	–	–	–
O=C(Nc1ccccc1C(F)(F)F)N[C@H]1CC[C@H](OCc2c(F)cccc2F)CC1 [II-5o]	–	–	0.95	0.80	0.64	> 20	–
O=C(Nc1ccccc1)N[C@H]1CC[C@H](OCc2c(F)cccc2F)CC1 [II-11]	–	–	0.89	0.88	0.81	> 20	–
COC1CCC(NC(=O)Nc2cccc(C(F)(F)F)c2)CC1 (centres unmarked) [III-3, 1-(4-Methoxycyclohexyl)-3-(3-(trifluoromethyl)phenyl)urea]	–	–	–	–	–	–	maximal fold induction [1, 5]: 1.16; IC50 [2, 6]: > 20 µM
Cc1ccccc1NC(=O)N[C@H]1CC[C@H](OCc2c(F)cccc2F)CC1 [II-7o]	–	–	0.78	0.79	0.83	> 20	–
Cc1ccc(NC(=O)N[C@H]2CC[C@H](OCc3c(F)cccc3F)CC2)cc1 [II-7p]	–	–	0.81	0.81	0.77	> 20	–
O=C(Nc1ccccc1F)N[C@H]1CC[C@H](OCc2c(F)cccc2F)CC1 [II-1o]	–	–	0.96	0.98	0.89	> 20	–
O=C(Nc1ccc(C(F)(F)F)cc1)N[C@H]1CC[C@H](OCc2c(F)cccc2F)CC1 [II-5p]	–	–	0.91	0.79	0.85	> 20	–
COc1ccccc1NC(=O)N[C@H]1CC[C@H](OCc2c(F)cccc2F)CC1 [II-8o]	–	–	0.94	0.88	0.84	> 20	–
O=C(Nc1ccc(Br)cc1)NC1CCC(Oc2ccc(F)cc2)CC1 (centres unmarked) [Compound I-3p]	1.29	> 20	–	–	–	–	–
O=C(Nc1cccc(I)c1)N[C@H]1CC[C@H](OCc2c(F)cccc2F)CC1 [II-4m]	–	–	0.69	0.75	0.72	> 20	–
O=C(Nc1ccc(OC(F)(F)F)cc1)N[C@H]1CC[C@H](OCc2c(F)cccc2F)CC1 [II-6p]	–	–	0.81	0.80	0.98	> 20	–
O=C(Nc1ccccc1OC(F)(F)F)N[C@H]1CC[C@H](OCc2c(F)cccc2F)CC1 [II-6o]	–	–	0.93	0.93	0.76	> 20	–
O=C(Nc1ccc(C(F)(F)F)cc1)NC1CCC(Oc2ccc(F)cc2)CC1 (centres unmarked) [Compound I-5p]	13.99	2.8 ± 0.1	–	–	–	–	–
COc1ccccc1NC(=O)NC1CCC(Oc2ccc(F)cc2)CC1 (centres unmarked) [Compound I-8o]	1.51	> 20	–	–	–	–	–
